# Source: ChEMBL document CHEMBL1201862, “PubChem BioAssay data set” (2004)
#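 Cells were grown in 96-well plates and exposed to each compound for 48 hours at five concentrations; endpoints were interpolated linearly between bracketing concentrations, or set to the highest concentration if not reached. GI50: concentration for 50% inhibition of growth.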 Calls of active or inactive are those of the source. No stated cut-off is given here; in the data, active = GI50 up to about 1.1 µM and inactive = higher.
# Key:
# Assay in all cases: NCI-60 cell line screen, 48 h
# [1] = tested on: MDA-MB-231
# [2] = tested on: HCC 2998
# [3] = tested on: NCI-H23
# [4] = tested on: NCI-H226
# [5] = tested on: LOX IMVI
# [6] = tested on: IGROV-1
# [7] = tested on: OVCAR-4
# [8] = tested on: U-251
# [9] = tested on: SR
# [10] = tested on: Hs-578T
# [11] = tested on: K562
# [12] = tested on: BT-549
# [13] = tested on: TK-10
# [14] = tested on: MDA-N
# [15] = tested on: UO-31
# [16] = tested on: M14
# [17] = tested on: HT-29
# [18] = tested on: HOP-62
# [19] = tested on: HCT-116
# [20] = tested on: PC-3
# [21] = tested on: T47D
# [22] = tested on: SNB-19
# [23] = tested on: ACHN
# [24] = tested on: SF-268
# [25] = tested on: COLO 205
# [26] = tested on: HCT-15
# [27] = tested on: MOLT-4
# [28] = tested on: KM12
# [29] = tested on: RPMI-8226
# [30] = tested on: HL-60
# [31] = tested on: UACC-62
# [32] = tested on: SF-539
# [33] = tested on: SK-MEL-2
# [34] = tested on: NCI-H460
# [35] = tested on: MDA-MB-435
# [36] = tested on: OVCAR-3
# [37] = tested on: HOP-92
# [38] = tested on: DU-145
# [39] = tested on: UACC-257
# [40] = tested on: CAKI-1
# [41] = tested on: OVCAR-5
# [42] = tested on: SN12C
# [43] = tested on: NCI/ADR-RES
# [44] = tested on: SK-MEL-28
# [45] = tested on: OVCAR-8
# [46] = tested on: A498
# [47] = tested on: A549
# [48] = tested on: Malme-3M
# [49] = tested on: SNB-75
# [50] = tested on: SW-620
# [51] = tested on: SK-OV-3
# [52] = tested on: 786-0
# [53] = tested on: CCRF-CEM
# [54] = tested on: RXF 393
# [55] = tested on: MCF7
# [56] = tested on: SK-MEL-5
# [57] = tested on: EKVX
# [58] = tested on: SF-295
# [59] = tested on: NCI-H522
compound,measurement,setting,value
CC(C)C[C@@H](NC(=O)[C@@H](Cc1cccc2ccccc12)NC(=O)N1CCOCC1)B(O)O,GI50,[1],50.5 µM (inactive)
same,GI50,[2],> 100 µM (inactive)
same,GI50,[3],51.2 µM (inactive)
same,GI50,[4],18 µM (inactive)
same,GI50,[5],54.6 µM (inactive)
same,GI50,[6],> 100 µM (inactive)
same,GI50,[7],> 100 µM (inactive)
same,GI50,[8],> 100 µM (inactive)
same,GI50,[9],27 µM (inactive)
same,GI50,[10],40.5 µM (inactive)
same,GI50,[11],57.9 µM (inactive)
same,GI50,[12],36.3 µM (inactive)
same,GI50,[13],31.9 µM (inactive)
same,GI50,[14],20.7 µM (inactive)
same,GI50,[15],> 100 µM (inactive)
same,GI50,[16],28.2 µM (inactive)
same,GI50,[17],59.4 µM (inactive)
same,GI50,[18],> 100 µM (inactive)
same,GI50,[19],33.2 µM (inactive)
same,GI50,[20],> 100 µM (inactive)
same,GI50,[21],58.2 µM (inactive)
same,GI50,[22],> 100 µM (inactive)
same,GI50,[23],66.1 µM (inactive)
same,GI50,[24],61.5 µM (inactive)
same,GI50,[25],48.4 µM (inactive)
same,GI50,[26],> 100 µM
same,GI50,[27],31.5 µM (inactive)
same,GI50,[28],> 100 µM (inactive)
same,GI50,[29],32.5 µM (inactive)
same,GI50,[30],38.7 µM (inactive)
same,GI50,[31],63.1 µM (inactive)
same,GI50,[32],43.4 µM (inactive)
same,GI50,[33],37 µM (inactive)
same,GI50,[34],> 100 µM (inactive)
same,GI50,[35],20.8 µM (inactive)
same,GI50,[36],29.4 µM (inactive)
same,GI50,[37],37.1 µM (inactive)
same,GI50,[38],> 100 µM (inactive)
same,GI50,[39],> 100 µM (inactive)
same,GI50,[40],72.8 µM (inactive)
same,GI50,[41],75.3 µM (inactive)
same,GI50,[42],96.2 µM (inactive)
same,GI50,[43],> 100 µM (inactive)
same,GI50,[44],25.2 µM (inactive)
same,GI50,[45],> 100 µM (inactive)
same,GI50,[46],31 µM (inactive)
same,GI50,[47],> 100 µM (inactive)
CC(C)/C(Cl)=N\OC(=O)Nc1ccc(F)cc1F,GI50,[1],2.21 µM (inactive)
same,GI50,[2],18.3 µM (inactive)
same,GI50,[48],1.66 µM (inactive)
same,GI50,[3],14.3 µM (inactive)
same,GI50,[4],15.8 µM (inactive)
same,GI50,[5],1.66 µM (inactive)
same,GI50,[49],17.3 µM (inactive)
same,GI50,[6],16 µM (inactive)
same,GI50,[7],3.76 µM (inactive)
same,GI50,[50],1.78 µM (inactive)
same,GI50,[8],18 µM (inactive)
same,GI50,[9],1.67 µM (inactive)
same,GI50,[51],17.1 µM (inactive)
same,GI50,[10],23.3 µM (inactive)
same,GI50,[52],3.9 µM (inactive)
same,GI50,[11],1.26 µM (inactive)
same,GI50,[12],13 µM (inactive)
same,GI50,[13],5.19 µM (inactive)
same,GI50,[14],9.33 µM (inactive)
same,GI50,[15],7.52 µM (inactive)
same,GI50,[16],2.98 µM (inactive)
same,GI50,[17],3.82 µM (inactive)
same,GI50,[18],17.6 µM (inactive)
same,GI50,[53],0.836 µM (active)
same,GI50,[19],3.78 µM (inactive)
same,GI50,[20],17.2 µM (inactive)
same,GI50,[21],14.4 µM (inactive)
same,GI50,[22],19.5 µM (inactive)
same,GI50,[23],3.36 µM (inactive)
same,GI50,[24],19.5 µM (inactive)
same,GI50,[54],3.72 µM (inactive)
same,GI50,[25],1.87 µM (inactive)
same,GI50,[26],7.67 µM
same,GI50,[55],3.43 µM (inactive)
same,GI50,[27],1.85 µM (inactive)
same,GI50,[28],17.7 µM (inactive)
same,GI50,[29],4.69 µM (inactive)
same,GI50,[30],0.486 µM (active)
same,GI50,[31],16.9 µM (inactive)
same,GI50,[56],14.3 µM (inactive)
same,GI50,[32],15.8 µM (inactive)
same,GI50,[33],13.6 µM (inactive)
same,GI50,[34],20.7 µM (inactive)
same,GI50,[36],2.68 µM (inactive)
same,GI50,[57],6.53 µM (inactive)
same,GI50,[37],1.82 µM (inactive)
same,GI50,[58],15.1 µM (inactive)
same,GI50,[38],17.8 µM (inactive)
same,GI50,[39],14.1 µM (inactive)
same,GI50,[40],19.3 µM (inactive)
same,GI50,[41],17.4 µM (inactive)
same,GI50,[42],6.78 µM (inactive)
same,GI50,[43],7.05 µM (inactive)
same,GI50,[44],11 µM (inactive)
same,GI50,[45],15.6 µM (inactive)
same,GI50,[46],17 µM (inactive)
same,GI50,[47],18.4 µM (inactive)
Cc1nn2c(C(=O)N/N=C/c3ccc([N+](=O)[O-])cc3)c(C)nc2s1,GI50,[1],24.1 µM (inactive)
same,GI50,[2],> 100 µM (inactive)
same,GI50,[48],> 100 µM (inactive)
same,GI50,[3],> 100 µM (inactive)
same,GI50,[4],> 100 µM (inactive)
same,GI50,[5],> 100 µM (inactive)
same,GI50,[49],50.5 µM (inactive)
same,GI50,[6],> 100 µM (inactive)
same,GI50,[7],> 100 µM (inactive)
same,GI50,[50],> 100 µM (inactive)
same,GI50,[8],23.6 µM (inactive)
same,GI50,[51],28.4 µM (inactive)
same,GI50,[10],> 100 µM (inactive)
same,GI50,[52],> 100 µM (inactive)
same,GI50,[11],94.2 µM (inactive)
same,GI50,[12],> 100 µM (inactive)
same,GI50,[59],51.2 µM (inactive)
same,GI50,[13],36.7 µM (inactive)
same,GI50,[14],> 100 µM (inactive)
same,GI50,[15],34.4 µM (inactive)
same,GI50,[16],> 100 µM (inactive)
same,GI50,[17],> 100 µM (inactive)
same,GI50,[18],46.5 µM (inactive)
same,GI50,[53],> 100 µM (inactive)
same,GI50,[19],> 100 µM (inactive)
same,GI50,[21],> 100 µM (inactive)
same,GI50,[22],45.9 µM (inactive)
same,GI50,[23],50 µM (inactive)
same,GI50,[24],> 100 µM (inactive)
same,GI50,[54],> 100 µM (inactive)
same,GI50,[25],> 100 µM (inactive)
same,GI50,[26],> 100 µM
same,GI50,[55],90.4 µM (inactive)
same,GI50,[27],41 µM (inactive)
same,GI50,[28],> 100 µM (inactive)
same,GI50,[30],> 100 µM (inactive)
same,GI50,[31],> 100 µM (inactive)
same,GI50,[56],> 100 µM (inactive)
same,GI50,[32],31.4 µM (inactive)
same,GI50,[34],> 100 µM (inactive)
same,GI50,[35],> 100 µM (inactive)
same,GI50,[36],> 100 µM (inactive)
same,GI50,[57],> 100 µM (inactive)
same,GI50,[37],> 100 µM (inactive)
same,GI50,[58],> 100 µM (inactive)
same,GI50,[38],> 100 µM (inactive)
same,GI50,[39],> 100 µM (inactive)
same,GI50,[40],> 100 µM (inactive)
same,GI50,[41],> 100 µM (inactive)
same,GI50,[42],> 100 µM (inactive)
same,GI50,[43],> 100 µM (inactive)
same,GI50,[44],> 100 µM (inactive)
same,GI50,[45],> 100 µM (inactive)
same,GI50,[46],> 100 µM (inactive)
same,GI50,[47],> 100 µM (inactive)
